Reference: patent publication US20250296959A1, “B7-H3 TARGETING PEPTIDES AND CONSTRUCTS THEREOF” (Mariana Oncology Inc., priority 2024, published 2025)
Starred links: 1 amine or outer side, 2 acyl side, 3 side chain; linkers in the order of their positions; H or OH if unused. Positions of bridges follow the written chain, without caps; N, C: chain ends. Non-standard residues stand in square brackets, D forms with d. Residues, ends and D or L forms follow the SMILES beside them. *: point of attachment. X16 = O=C(O)CCOCCOCCOCCOCCOCCOCCOCCOCCOCCOCCOCCOCCOCCOCCOCCOCCOCCOCCOCCOCCOCCC(=O)*; Ala(1-CH2CO2H-4-piperidyl) = N[C@@H](CC1CCN(CC(=O)O)CC1)C(=O)O; Ala(piperidin-4-yl) = O=C([C@H](CC1CCN([*:3])CC1)N[*:1])[*:2]; DOTA = O=C(O)CN1CCN(CC(=O)O)CCN(CC(=O)*)CCN(CC(=O)O)CC1; Trp(5-F) = N[C@@H](Cc1c[nH]c2ccc(F)cc12)C(=O)O; Ala(4-THP) = N[C@@H](CC1CCOCC1)C(=O)O; Val(3-OH) = CC(C)(O)[C@H](N)C(=O)O; hPhe = N[C@@H](CCc1ccccc1)C(=O)O; tBuAla = CC(C)(C)C[C@H](N)C(=O)O; NMeK = CN[C@@H](CCCCN)C(=O)O; Tle = CC(C)(C)[C@H](N)C(=O)O; hLeu = CC(C)CC[C@H](N)C(=O)O; αMeK = C[C@](N)(CCCCN)C(=O)O; Pip = O=C(O)[C@@H]1CCCCN1; Sar = CNCC(=O)O

Each compound was assayed against T1, human 4lg B7-H3 (Homo sapiens, UniProt Q5ZPR3) (assay: Affinity determination by surface plasmon resonance (SPR) to 4Ig B7-H3). Settings: SPR KD—25° C., 4Ig B7-H3; 25° C. flow cell temperature.
T1 sequence (Q5ZPR3 29-534): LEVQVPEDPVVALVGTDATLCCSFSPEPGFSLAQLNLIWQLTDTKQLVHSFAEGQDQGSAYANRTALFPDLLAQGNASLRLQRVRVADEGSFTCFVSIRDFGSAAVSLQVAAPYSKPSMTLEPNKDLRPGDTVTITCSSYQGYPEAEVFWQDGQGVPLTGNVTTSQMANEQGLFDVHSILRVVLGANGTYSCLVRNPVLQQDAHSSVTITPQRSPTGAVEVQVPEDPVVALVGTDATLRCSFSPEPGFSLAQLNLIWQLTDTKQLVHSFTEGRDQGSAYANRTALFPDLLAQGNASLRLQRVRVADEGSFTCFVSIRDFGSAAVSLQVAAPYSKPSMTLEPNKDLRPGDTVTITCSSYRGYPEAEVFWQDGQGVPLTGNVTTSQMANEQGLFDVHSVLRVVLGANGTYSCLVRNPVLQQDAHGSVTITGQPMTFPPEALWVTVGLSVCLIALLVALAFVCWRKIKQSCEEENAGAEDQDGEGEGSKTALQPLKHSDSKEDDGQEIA

SMILES	Kd [nM]
CC(=O)N[C@@H](CCC(C)C)C(=O)N[C@@H](Cc1ccc(O)cc1)C(=O)N[C@H]1CSSC[C@@H](C(=O)N[C@@H](Cc2c[nH]c3ccc(F)cc23)C(=O)N[C@@H](Cc2ccccc2)C(=O)N[C@H](C(=O)N[C@H](CCCCNC(=O)CN2CCN(CC(=O)O)CCN(CC(=O)O)CCN(CC(=O)O)CC2)C(=O)O)[C@@H](C)O)NC(=O)[C@H](Cc2ccc(O)cc2)NC(=O)[C@H](C(C)C)NC(=O)[C@H](CC(=O)O)NC(=O)[C@H](CC2CCOCC2)NC(=O)[C@H](CCCCN)N(C)C(=O)CNC(=O)[C@H](C(C)(C)C)NC1=O [compound 352, Ac-hLeu-Y-C-Tbg-G-NMeLys-ThpA-D-V-Y-C-5FW-F-Thr-dLys(DOTA)-COOH] (Ac-[hLeu]YC[Tle]G[NMeK][Ala(4-THP)]DVYC[Trp(5-F)]FT[dK](DOTA)-OH; disulfide 3-11)	10 to 100
CC(=O)N[C@@H](CCC(C)C)C(=O)N[C@@H](Cc1ccc(O)cc1)C(=O)N[C@H]1CSSC[C@@H](C(=O)N[C@@H](Cc2c[nH]c3ccc(F)cc23)C(=O)N[C@@H](Cc2ccccc2)C(=O)N[C@H](C(=O)N[C@H](CCCCNC(=O)CN2CCN(CC(=O)O)CCN(CC(=O)O)CCN(CC(=O)O)CC2)C(=O)O)[C@@H](C)O)NC(=O)[C@H](Cc2ccc(O)cc2)NC(=O)[C@H](C(C)C)NC(=O)[C@H](CC(=O)O)NC(=O)[C@H](CC2CCOCC2)NC(=O)[C@](C)(CCCCN)NC(=O)CNC(=O)[C@H](C(C)(C)C)NC1=O [compound 353, Ac-hLeu-Y-C-Tbg-G-aMeLys-ThpA-D-V-Y-C-5FW-F-Thr-dLys(DOTA)-COOH] (Ac-[hLeu]YC[Tle]G[αMeK][Ala(4-THP)]DVYC[Trp(5-F)]FT[dK](DOTA)-OH; disulfide 3-11)	100 to 300
CC(=O)N[C@@H](CCC(C)C)C(=O)N[C@@H](Cc1ccc(O)cc1)C(=O)N[C@H]1CSSC[C@@H](C(=O)N[C@@H](CCc2ccccc2)C(=O)N[C@@H](Cc2ccccc2)C(=O)N[C@H](C(=O)N[C@H](CCCCNC(=O)CN2CCN(CC(=O)O)CCN(CC(=O)O)CCN(CC(=O)O)CC2)C(=O)O)[C@@H](C)O)NC(=O)[C@H](Cc2ccc(O)cc2)NC(=O)[C@H](C(C)C)NC(=O)[C@H](CC(=O)O)NC(=O)[C@H](CC2CCOCC2)NC(=O)[C@H](CCCCN)NC(=O)CNC(=O)[C@H](C(C)(C)C)NC1=O [compound 359, Ac-hLeu-Y-C-Tbg-G-K-ThpA-D-V-Y-C-hF-F-Thr-dLys(DOTA)-COOH] (Ac-[hLeu]YC[Tle]GK[Ala(4-THP)]DVYC[hPhe]FT[dK](DOTA)-OH; disulfide 3-11)	100 to 300
CC(=O)N[C@@H](CCC(C)C)C(=O)N[C@@H](Cc1ccc(O)cc1)C(=O)N[C@H]1CSSC[C@@H](C(=O)N[C@@H](Cc2c[nH]c3ccc(F)cc23)C(=O)N[C@@H](CC(C)(C)C)C(=O)N[C@H](C(=O)N[C@H](CCCCNC(=O)CN2CCN(CC(=O)O)CCN(CC(=O)O)CCN(CC(=O)O)CC2)C(=O)O)[C@@H](C)O)NC(=O)[C@H](Cc2ccc(O)cc2)NC(=O)[C@H](C(C)C)NC(=O)[C@H](CC(=O)O)NC(=O)[C@H](CC2CCOCC2)NC(=O)[C@H](CCCCN)NC(=O)CNC(=O)[C@H](C(C)(C)C)NC1=O [compound 360, Ac-hLeu-Y-C-Tbg-G-K-ThpA-D-V-Y-C-5FW-tBuAla-Thr-dLys(DOTA)-COOH] (Ac-[hLeu]YC[Tle]GK[Ala(4-THP)]DVYC[Trp(5-F)][tBuAla]T[dK](DOTA)-OH; disulfide 3-11)	1 to 10

Same assay, conditions: SPR KD—37° C., 4Ig B7-H3; 37° C. flow cell temperature

SMILES	Kd [nM]
CC(=O)N[C@@H](CCC(C)C)C(=O)N[C@@H](Cc1ccc(O)cc1)C(=O)N[C@H]1CSSC[C@@H](C(=O)N[C@@H](Cc2c[nH]c3ccc(F)cc23)C(=O)N[C@@H](Cc2ccccc2)C(=O)N[C@H](C(=O)N[C@H](CCCCN)C(N)=O)C(C)(C)O)NC(=O)[C@H](Cc2ccc(O)cc2)NC(=O)[C@H](C(C)C)NC(=O)[C@H](CC(=O)O)NC(=O)[C@H](CC2CCOCC2)NC(=O)[C@H](CCCCNC(=O)CN2CCN(CC(=O)O)CCN(CC(=O)O)CCN(CC(=O)O)CC2)NC(=O)CNC(=O)[C@H](C(C)(C)C)NC1=O [compound 337, Ac-hLeu-Y-C-Tbg-G-Lys(DOTA)-ThpA-D-V-Y-C-5FW-F-hydroxyVal-dLys-CONH2] (Ac-[hLeu]YC[Tle]GK(DOTA)[Ala(4-THP)]DVYC[Trp(5-F)]F[Val(3-OH)][dK]-NH2; disulfide 3-11)	1 to 10
CC(=O)N[C@@H](CCC(C)C)C(=O)N[C@@H](Cc1ccc(O)cc1)C(=O)N[C@H]1CSSC[C@@H](C(=O)N[C@@H](Cc2c[nH]c3ccc(F)cc23)C(=O)N[C@@H](Cc2ccccc2)C(=O)N[C@H](C(=O)N[C@H](CCCCNC(=O)CN2CCN(CC(=O)O)CCN(CC(=O)O)CCN(CC(=O)O)CC2)C(=O)O)[C@@H](C)O)NC(=O)[C@H](Cc2ccc(O)cc2)NC(=O)[C@H](C(C)C)NC(=O)[C@H](CC(=O)O)NC(=O)[C@H](CC2CCOCC2)NC(=O)[C@H](CCCCNC(=O)CCOCCOCCOCCOCCOCCOCCOCCOCCOCCOCCOCCOCCOCCOCCOCCOCCOCCOCCOCCOCCOCCC(=O)O)NC(=O)CNC(=O)[C@H](C(C)(C)C)NC1=O [compound 341, Ac-hLeu-Y-C-Tbg-G-K(PEG21-COOH)-ThpA-D-V-Y-C-5FW-F-Thr-dLys(DOTA)-COOH] (Ac-[hLeu]YC[Tle]GK(X16)[Ala(4-THP)]DVYC[Trp(5-F)]FT[dK](DOTA)-OH; disulfide 3-11)	10 to 100
CC(=O)N[C@@H](CCC(C)C)C(=O)N[C@@H](Cc1ccc(O)cc1)C(=O)N[C@H]1CSSC[C@@H](C(=O)N[C@@H](Cc2c[nH]c3ccc(F)cc23)C(=O)N[C@@H](Cc2ccccc2)C(=O)N[C@H](C(=O)O)C(C)(C)O)NC(=O)[C@H](Cc2ccc(O)cc2)NC(=O)[C@H](C(C)C)NC(=O)[C@H](CC(=O)O)NC(=O)[C@H](CC2CCOCC2)NC(=O)[C@H](CC2CCN(C(=O)CN3CCN(CC(=O)O)CCN(CC(=O)O)CCN(CC(=O)O)CC3)CC2)NC(=O)CNC(=O)[C@H](C(C)(C)C)NC1=O [compound 342, Ac-hLeu-Y-C-Tbg-G-Pip(DOTA)Ala-ThpA-D-V-Y-C-5FW-F-hydroxyVal-COOH] (Ac-[hLeu]YC[Tle]G[Ala(piperidin-4-yl)](DOTA)[Ala(4-THP)]DVYC[Trp(5-F)]F[Val(3-OH)]-OH; disulfide 3-11)	10 to 100
CC(=O)N[C@@H](CCC(C)C)C(=O)N[C@@H](Cc1ccc(O)cc1)C(=O)N[C@H]1CSSC[C@@H](C(=O)N[C@@H](Cc2c[nH]c3ccc(F)cc23)C(=O)N[C@@H](Cc2ccccc2)C(=O)N[C@H](C(=O)O)C(C)(C)O)NC(=O)[C@H](Cc2ccc(O)cc2)NC(=O)[C@H](C(C)C)NC(=O)[C@H](CC(=O)O)NC(=O)[C@H](CC2CCN(CC(=O)O)CC2)NC(=O)[C@H](CCCCNC(=O)CN2CCN(CC(=O)O)CCN(CC(=O)O)CCN(CC(=O)O)CC2)NC(=O)CNC(=O)[C@H](C(C)(C)C)NC1=O [compound 343, Ac-hLeu-Y-C-Tbg-G-Lys(DOTA)-Pip(CH2COOH)Ala-D-V-Y-C-5FW-F-hydroxyVal-COOH] (Ac-[hLeu]YC[Tle]GK(DOTA)[Ala(1-CH2CO2H-4-piperidyl)]DVYC[Trp(5-F)]F[Val(3-OH)]-OH; disulfide 3-11)	10 to 100
CC(=O)N[C@@H](CCC(C)C)C(=O)N[C@@H](Cc1ccc(O)cc1)C(=O)N[C@H]1CSSC[C@@H](C(=O)N[C@@H](Cc2c[nH]c3ccc(F)cc23)C(=O)N[C@@H](Cc2ccccc2)C(=O)N[C@H](C(=O)N[C@H](CCCCNC(=O)CN2CCN(CC(=O)O)CCN(CC(=O)O)CCN(CC(=O)O)CC2)C(=O)O)C(C)(C)O)NC(=O)[C@H](Cc2ccc(O)cc2)NC(=O)[C@H](C(C)C)NC(=O)[C@H](CC(=O)O)NC(=O)[C@H](CC2CCOCC2)NC(=O)[C@H](CCCCN)NC(=O)CN(C)C(=O)[C@H](C(C)C)NC1=O [compound 347, Ac-hLeu-Y-C-V-Sar-K-ThpA-D-V-Y-C-5FW-F-hydroxyVal-dLys(DOTA)-COOH] (Ac-[hLeu]YCV[Sar]K[Ala(4-THP)]DVYC[Trp(5-F)]F[Val(3-OH)][dK](DOTA)-OH; disulfide 3-11)	< 1
CC(=O)N[C@@H](CCC(C)C)C(=O)N[C@@H](Cc1ccc(O)cc1)C(=O)N[C@H]1CSSC[C@@H](C(=O)N[C@@H](Cc2c[nH]c3ccc(F)cc23)C(=O)N[C@@H](Cc2ccccc2)C(=O)N[C@H](C(=O)N[C@H](CCCCNC(=O)CN2CCN(CC(=O)O)CCN(CC(=O)O)CCN(CC(=O)O)CC2)C(=O)O)C(C)(C)O)NC(=O)[C@H](Cc2ccc(O)cc2)NC(=O)[C@H](C(C)C)NC(=O)[C@H](CC(=O)O)NC(=O)[C@H](CC2CCOCC2)NC(=O)[C@@H]2CCCN2C(=O)CNC(=O)[C@H](C(C)(C)C)NC1=O [compound 349, Ac-hLeu-Y-C-Tbg-G-Pro-ThpA-D-V-Y-C-5FW-F-hydroxyVal-dLys(DOTA)-COOH] (Ac-[hLeu]YC[Tle]GP[Ala(4-THP)]DVYC[Trp(5-F)]F[Val(3-OH)][dK](DOTA)-OH; disulfide 3-11)	10 to 100
CC(=O)N[C@@H](CCC(C)C)C(=O)N[C@@H](Cc1ccc(O)cc1)C(=O)N[C@H]1CSSC[C@@H](C(=O)N[C@@H](Cc2c[nH]c3ccc(F)cc23)C(=O)N[C@@H](Cc2ccccc2)C(=O)N[C@H](C(=O)N[C@H](CCCCNC(=O)CN2CCN(CC(=O)O)CCN(CC(=O)O)CCN(CC(=O)O)CC2)C(=O)O)C(C)(C)O)NC(=O)[C@H](Cc2ccc(O)cc2)NC(=O)[C@H](C(C)C)NC(=O)[C@H](CC(=O)O)NC(=O)[C@H](CC2CCOCC2)NC(=O)[C@@H]2CCCCN2C(=O)CNC(=O)[C@H](C(C)(C)C)NC1=O [compound 350, Ac-hLeu-Y-C-Tbg-G-Pip-ThpA-D-V-Y-C-5FW-F-hydroxyVal-dLys(DOTA)-COOH] (Ac-[hLeu]YC[Tle]G[Pip][Ala(4-THP)]DVYC[Trp(5-F)]F[Val(3-OH)][dK](DOTA)-OH; disulfide 3-11)	10 to 100
